Several values for one entry are separate records, joined by “and”; a condition that tells them apart may be missing. Identical values can stand only once. Square brackets hold non-standard residues; d marks the D form. Peptide text beside a SMILES is read from it. Cya = N[C@@H](CS(=O)(=O)O)C(=O)O
Tested on: study eye of subjects with intermediate non-exudative AMD
Test: SD-OCT Analysis 2 (thickness, volume, map coverage of retinal layers)
Format: in vivo, human
Conditions: change from baseline at Week 32
Experimental: Numerous study assessments were conducted at various time points throughout the study. Included among these study assessments were; refractive eye examinations, determinations of BCVA AND low-luminance BCVA, Lanthony D-15 color vision test, measurement of intraocular pressure (IOP), Indirect ophthalmoscopy/dilated fundus examinations and spectral-domain optical coherence tomography (SD-OCT). Also, blood and saliva samples were obtained from each subject for genetic analysis. The above-listed study assessments were performed at the time points indicated in Table 1, below: The OCT scans were analyzed by two (2) unrelated experts. In Analysis #2, the OCT images of study eyes were analyzed to determine mean thickness and mean volume of numerous retinal subfields and layer segments at baseline and at Week 12 for sham eyes and at baseline and at Week 32 for risuteganib eyes, to document any significant differences between groups of eyes based on baseline measurements or changes from baseline in those measurements. In addition to the quantitative analysis of OCT images, OCT Analysis #2 included qualitative assessment of the OCT images to identify GA, pseudodrusen, and disruption of the ELM and EZ layers. FIGS. 9A, 9B and 9C illustrate the level of varying pathology within the ELM based on quantitative mapping that were also assessed, with FIG. 9A (left) showing no ELM disruption, FIG. 9B (center) showing segmental disruption, and FIG. 9C showing diffuse disruption.

[1] = risuteganib nonresponder eyes, n = 12
[2] = risuteganib responder eyes, n = 12
[3] = risuteganib super-responder eyes, n = 8

## C[C@@H](O)[C@H](NC(=O)[C@H](CS(=O)(=O)O)NC(=O)CNC(=O)[C@H](CCCNC(=N)N)NC(=O)CN)C(=O)N1CCC[C@H]1C(=O)O [risuteganib, Glycyl-L-arginylglycyl-3-sulfo-L-alanyl-L-threonyl-L-proline] (H-GRG[Cya]TP-OH)
[1]
  Change in mean thickness, Inner retina mid subfield: 2.274 μm
  Change in mean thickness, ONL-EZ central subfield: −6.486 μm
  Change in mean thickness, ONL-EZ mid subfield: −4.522 μm
  Change in mean thickness, ONL-RPE central subfield: −7.877 μm
  Change in mean thickness, ONL-RPE foveal center: −7.626 μm
  Change in mean thickness, ONL-RPE mid subfield: −6.320 μm
  Change in mean thickness, RPE-BM central subfield: −0.118 μm
  Change in mean thickness, RPE-BM foveal center: −3.740 μm
  Change in mean thickness, RPE-BM mid subfield: 1.114 μm
  Change in mean thickness, Total retinal central subfield: −5.981 μm
  Change in mean thickness, Total retinal foveal center: −9.112 μm
  Change in mean thickness, Total retinal mid subfield: −4.046 μm
  Change in volume, ELM-EZ central subfield: −0.001 mm^3
  Change in volume, ELM-EZ mid subfield: 0.002 mm^3
  Change in volume, ELM-RPE: 0.009 mm^3
  Change in volume, ELM-RPE central subfield: −0.002 mm^3
  Change in volume, ELM-RPE mid subfield: −0.003 mm^3
  Change in volume, EZ-RPE: 0.005 mm^3
  Change in volume, EZ-RPE central subfield: −0.001 mm^3
  Change in volume, EZ-RPE mid subfield: −0.006 mm^3
  Change in volume, ONL-EZ central subfield: −0.005 mm^3
  Change in volume, ONL-EZ mid subfield: −0.014 mm^3
  Change in volume, ONL-RPE: −0.026 mm^3
  Change in volume, ONL-RPE central subfield: −0.006 mm^3
  Change in volume, ONL-RPE mid subfield: −0.020 mm^3
  Change in volume, RPE-BM: 0.037 mm^3
  Change in volume, RPE-BM central subfield: 0.000 mm^3
  Change in volume, RPE-BM mid subfield: 0.004 mm^3
  Change in volume, Total retinal: 0.091 mm^3
  Change in volume, Total retinal central subfield: −0.004 mm^3
  Change in volume, Total retinal mid subfield: −0.012 mm^3
  Map coverage, 0 μm EZ: 1.469%
  Map coverage, 0 μm RPE-BM: 1.465%
  Map coverage, 10 μm EZ: 1.332%
  Map coverage, 20 μm EZ: 1.288%
  Map coverage, 50 μm RPE-BM: −1.794%
  Map coverage, 150 μm RPE-BM: 2.143%
  Map coverage, 250 μm RPE-BM: 0.000%
[2]
  Change in mean thickness, ELM-EZ central subfield: −2.322 μm
  Change in mean thickness, ELM-EZ mid subfield: −0.967 μm
  Change in mean thickness, ELM-RPE central subfield: −3.102 μm
  Change in mean thickness, ELM-RPE foveal center: −0.000 μm and 0.000 μm
  Change in mean thickness, ELM-RPE mid subfield: −2.141 μm
  Change in mean thickness, EZ-RPE central subfield: −0.779 μm
  Change in mean thickness, EZ-RPE foveal center: 0.975 μm
  Change in mean thickness, EZ-RPE mid subfield: −1.174 μm
  Change in mean thickness, Inner retina central subfield: 5.864 μm
  Change in mean thickness, Inner retina mid subfield: 5.512 μm
  Change in mean thickness, ONL-EZ central subfield: −5.775 μm
  Change in mean thickness, ONL-EZ mid subfield: −5.386 μm
  Change in mean thickness, ONL-RPE central subfield: −6.555 μm
  Change in mean thickness, ONL-RPE foveal center: 0.650 μm
  Change in mean thickness, ONL-RPE mid subfield: −6.561 μm
  Change in mean thickness, RPE-BM central subfield: −8.238 μm
  Change in mean thickness, RPE-BM foveal center: −12.512 μm
  Change in mean thickness, RPE-BM mid subfield: −5.287 μm
  Change in mean thickness, Total retinal central subfield: −0.691 μm
  Change in mean thickness, Total retinal foveal center: 0.804 μm
  Change in mean thickness, Total retinal mid subfield: −1.049 μm
  Change in volume, ELM-EZ central subfield: −0.002 mm^3
  Change in volume, ELM-EZ mid subfield: −0.003 mm^3
  Change in volume, ELM-RPE: 0.086 mm^3
  Change in volume, ELM-RPE central subfield: −0.002 mm^3
  Change in volume, ELM-RPE mid subfield: −0.007 mm^3
  Change in volume, EZ-RPE: −0.059 mm^3
  Change in volume, EZ-RPE central subfield: −0.001 mm^3
  Change in volume, EZ-RPE mid subfield: −0.004 mm^3
  Change in volume, ONL-EZ central subfield: −0.004 mm^3
  Change in volume, ONL-EZ mid subfield: −0.017 mm^3
  Change in volume, ONL-RPE: 0.009 mm^3
  Change in volume, ONL-RPE central subfield: −0.005 mm^3
  Change in volume, ONL-RPE mid subfield: −0.021 mm^3
  Change in volume, RPE-BM: −0.049 mm^3
  Change in volume, RPE-BM central subfield: −0.007 mm^3
  Change in volume, RPE-BM mid subfield: −0.017 mm^3
  Change in volume, Total retinal: −0.188 mm^3
  Change in volume, Total retinal central subfield: 0.000 mm^3
  Change in volume, Total retinal mid subfield: −0.004 mm^3
  Map coverage, 0 μm EZ: 3.679%
  Map coverage, 0 μm RPE-BM: 1.099%
  Map coverage, 10 μm EZ: 3.699%
  Map coverage, 20 μm EZ: 3.574%
  Map coverage, 50 μm RPE-BM: −3.494%
  Map coverage, 150 μm RPE-BM: 3.335%
  Map coverage, 250 μm RPE-BM: −0.011%
[3]
  Change in mean thickness, ELM-EZ central subfield: −1.658 μm
  Change in mean thickness, ELM-EZ mid subfield: −1.049 μm
  Change in mean thickness, ELM-RPE central subfield: −3.461 μm
  Change in mean thickness, ELM-RPE foveal center: 2.925 μm
